± gives the uncertainty stated by the source.
Assay: xn = mol fraction of the nth substance listed

C[N+](C)(C)CCO.O=C([O-])c1cccnc1 + O
viscosity [mPa·s], 100 kPa
Details	x1 = 0.0008779	x1 = 0.001474	x1 = 0.00202	x1 = 0.002696	x1 = 0.00365	x1 = 0.005797
293.15 K	1.041 ± 0.022	1.065 ± 0.022	1.087 ± 0.023	1.115 ± 0.023	1.153 ± 0.024	1.238 ± 0.026
298.15 K	0.928 ± 0.019	0.949 ± 0.02	0.968 ± 0.02	0.992 ± 0.021	1.025 ± 0.021	1.097 ± 0.023
303.15 K	0.833 ± 0.017	0.852 ± 0.018	0.869 ± 0.018	0.889 ± 0.019	0.918 ± 0.019	0.98 ± 0.021
308.15 K	0.752 ± 0.016	0.769 ± 0.016	0.784 ± 0.016	0.802 ± 0.017	0.827 ± 0.017	0.88 ± 0.018
313.15 K	0.685 ± 0.014	0.7 ± 0.015	0.713 ± 0.015	0.729 ± 0.015	0.75 ± 0.016	0.796 ± 0.017

Cn1cc[n+](CCO)c1.[Cl-] + O
100 kPa
Details	electrical conductivity, 293.15 K [S/m]	electrical conductivity, 298.15 K [S/m]	electrical conductivity, 303.15 K [S/m]	electrical conductivity, 308.15 K [S/m]	electrical conductivity, 313.15 K [S/m]	viscosity, 293.15 K [mPa·s]	viscosity, 298.15 K [mPa·s]	viscosity, 303.15 K [mPa·s]	viscosity, 308.15 K [mPa·s]	viscosity, 313.15 K [mPa·s]
x1 = 3.478e-05	0.0241 ± 0.0077	0.0281 ± 0.0089	0.0319 ± 0.0097	0.036 ± 0.011	0.04 ± 0.012	–	–	–	–	–
x1 = 5.784e-05	0.0382 ± 0.0072	0.0443 ± 0.0084	0.0496 ± 0.0093	0.056 ± 0.01	0.062 ± 0.011	–	–	–	–	–
x1 = 9.73e-05	0.0597 ± 0.0068	0.0693 ± 0.0081	0.0776 ± 0.009	0.0866 ± 0.0097	0.095 ± 0.01	1.015 ± 0.021	0.904 ± 0.019	0.815 ± 0.017	0.738 ± 0.015	0.676 ± 0.014
x1 = 0.0001191	0.0701 ± 0.0057	0.082 ± 0.0067	0.0913 ± 0.0074	0.1 ± 0.0076	0.11 ± 0.0084	–	–	–	–	–
x1 = 0.0001798	0.0949 ± 0.0058	0.111 ± 0.0068	0.123 ± 0.0075	0.133 ± 0.0079	0.146 ± 0.0086	–	–	–	–	–
x1 = 0.0002349	0.117 ± 0.0059	0.136 ± 0.0068	0.151 ± 0.0074	0.163 ± 0.0078	0.178 ± 0.0085	1.023 ± 0.021	0.912 ± 0.019	0.826 ± 0.017	0.75 ± 0.016	0.69 ± 0.014
x1 = 0.0002827	0.133 ± 0.0057	0.154 ± 0.0065	0.171 ± 0.0071	0.183 ± 0.0078	0.2 ± 0.0082	1.025 ± 0.021	0.914 ± 0.019	0.829 ± 0.017	0.753 ± 0.016	0.694 ± 0.015
x1 = 0.0003387	0.15 ± 0.0058	0.173 ± 0.0067	0.192 ± 0.0076	0.209 ± 0.0081	0.224 ± 0.0087	–	–	–	–	–
x1 = 0.0003943	0.165 ± 0.006	0.191 ± 0.0069	0.214 ± 0.0077	0.228 ± 0.0084	0.248 ± 0.0092	1.029 ± 0.021	0.92 ± 0.019	0.835 ± 0.017	0.76 ± 0.016	0.702 ± 0.015
x1 = 0.000458	–	–	–	–	–	1.032 ± 0.021	0.922 ± 0.019	0.838 ± 0.017	0.764 ± 0.016	0.706 ± 0.015
x1 = 0.0005686	–	–	–	–	–	1.036 ± 0.022	0.926 ± 0.019	0.844 ± 0.018	0.77 ± 0.016	0.713 ± 0.015
x1 = 0.0007379	–	–	–	–	–	1.041 ± 0.022	0.933 ± 0.019	0.851 ± 0.018	0.778 ± 0.016	0.722 ± 0.015
x1 = 0.0009513	–	–	–	–	–	1.048 ± 0.022	0.94 ± 0.02	0.86 ± 0.018	0.787 ± 0.016	0.732 ± 0.015
x1 = 0.001272	–	–	–	–	–	1.056 ± 0.022	0.949 ± 0.02	0.872 ± 0.018	0.799 ± 0.017	0.746 ± 0.016
x1 = 0.001562	–	–	–	–	–	1.063 ± 0.022	0.957 ± 0.02	0.882 ± 0.018	0.809 ± 0.017	0.757 ± 0.016

C[S+](C)C.O=S(=O)([N-]S(=O)(=O)C(F)(F)F)C(F)(F)F + O=C1CCCO1
Details	electrical conductivity [S/m]
298.15 K, 101 kPa, x2 = 0.92	1.57 ± 0.063

From the CheMixHub ionic liquid set
